Assay results taken from patent US20160168224A1, “PROCESS FOR PREPARING AMPHIPHILIC PEPTIDE DERIVATIVES” (UNIVERSIDADE FEDERAL DE MINAS GERAIS - UFMG, priority 2013, published 2016).
Where two headings read alike, the source gives them in different places. No end group written: not given here.

How the values were obtained:
rats = conditions: subcutaneous, 10 mg/(kg day) for 28 days; cited from earlier work
[1] = in vivo; cited from earlier work
[2] = test system: spontaneously hypertensive rats (SP-SHR); assay: Blood pressure after topical application in spontaneously hypertensive rats; format: in vivo, rat
Description: To evaluate the ability of the amphiphilic peptide derivatives to exert systemic biological action after topical application, spontaneously hypertensive rats (SP-SHR) and Ang-(1-7) derivatives, as prepared in Example 1 were used.
SP-SHR rats (4-5 months-old with about 270 g body weight) were instrumented for acute blood pressure measurements using tribromoethanol anesthesia. Just after the arterial catheter implantation, the interscapular region was shaved for topical application of the formulation. Blood pressure (BP) was recorded 24 h after surgery (base line BP=173.0±6.2). BP was recorded in unanesthesized animals under resting conditions for 1 h. After that, a solution of Ang-(1-7) derivatives was applied topically (20 μl at 1 mg/ml) and BP was continuously recorded for 6 h.

[3] = human, in vivo; cited from earlier work
dogs = conditions: subcutaneous, 10 mg/(kg day) for 28 days; cited from earlier work
[4] = topical application 20 μl at 1 mg/ml

Row | Substance | detectable toxicities (rats) | plasma half-life [1] | change in BP ([2]; topical application) | plasma half-life [3] | detectable toxicities (dogs) | duration of BP decrease [2, 4] | start of BP decrease after application [2, 4] | decrease of BP ([2]; topical application 20 μl at 1 mg/ml, BP recorded for 6 h)
1 | Asp^1-Arg^2-Val^3-Tyr^4-Ile^5-His^6-Pro^7 [Ang-(1-7)] | did not lead to any detectable toxicities | about 10 min | did not cause significant change in BP | ~30 min | did not lead to any detectable toxicities | – | – | –
2 | Ang-(1-7) ester derivatives: Product of Example 1: Ang-(1-7) esterified with 1-octanol, mainly diester at C-terminal and Asp carboxyl groups, plus monoesters (DRVYIHP; not fully specified (residue 1, C-terminus); also: mixture: mainly diester at C-terminal and Asp carboxyl groups, plus monoesters; UniProt P01019 25-31, looked up) | – | – | – | – | – | up to 6 h | 90 min | up to 25 mmHg
